This is an account of results in patent US20250332143A1, “COMPOSITION COMPRISING ALOX5 INHIBITOR FOR PREVENTING OR TREATING SARCOPENIA” (PLUTO Inc., priority 2022, published 2025).

Assay [1] has as its target T1, Alox5 (Homo sapiens, UniProt P09917).
T1 sequence (P09917 1-674): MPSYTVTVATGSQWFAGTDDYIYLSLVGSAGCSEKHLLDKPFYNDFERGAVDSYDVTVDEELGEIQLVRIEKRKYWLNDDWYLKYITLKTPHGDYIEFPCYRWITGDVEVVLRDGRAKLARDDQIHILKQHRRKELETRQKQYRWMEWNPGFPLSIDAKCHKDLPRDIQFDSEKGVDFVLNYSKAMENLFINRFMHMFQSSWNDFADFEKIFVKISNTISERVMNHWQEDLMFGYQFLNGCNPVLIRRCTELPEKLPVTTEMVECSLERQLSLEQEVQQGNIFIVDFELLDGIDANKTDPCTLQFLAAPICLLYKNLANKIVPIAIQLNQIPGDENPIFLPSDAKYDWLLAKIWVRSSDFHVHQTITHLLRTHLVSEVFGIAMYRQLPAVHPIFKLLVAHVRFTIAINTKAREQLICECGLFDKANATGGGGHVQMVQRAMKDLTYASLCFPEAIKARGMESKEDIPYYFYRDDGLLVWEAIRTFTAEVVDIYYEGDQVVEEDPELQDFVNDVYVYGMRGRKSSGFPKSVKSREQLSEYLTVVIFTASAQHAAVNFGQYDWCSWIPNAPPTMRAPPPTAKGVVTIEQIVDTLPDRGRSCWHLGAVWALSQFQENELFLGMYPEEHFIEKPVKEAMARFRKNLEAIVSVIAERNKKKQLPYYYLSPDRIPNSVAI
As to conditions: cited from earlier work.

Assay [2] has as its system Alox5. In words: Alox5 expression in Dex-treated myotubes (qPCR, Western blot). It is filed as cell-based, mouse. The following applies: qPCR and Western blotting. As to the method: C2C12 murine skeletal muscle myoblasts were obtained from Koram Biotech (Republic of Korea). The cells were maintained in DMEM growth medium supplemented with 10% FBS, 1% penicillin, and streptomycin. When myoblasts proliferated to approximately 90%, they were differentiated into muscle fibers by treating them with DMEM differentiation medium supplemented with 2% HS, 1% penicillin, and streptomycin for 96 hours. Differentiated muscle fibers were treated with 10 μM Dex for 24 hours to induce sarcopenia. To evaluate the degree of differentiation of muscle cells, differentiating myoblasts were treated with the corresponding compound in differentiation medium for 24 or 48 hours.
The concentration of intracellular protein was measured using the Bradford assay (Bio-Rad, USA, CA), and electrophoresis was performed by loading on 10% and 12% polyacrylamide gels. […] Band intensity was measured using ImageJ 1.52 software (National Institutes of Health, USA), and intracellular protein was normalized to α-tubulin.
For quantitative real-time PCR, transcript levels of genes of interest were analyzed using the StepOnePlus real-time PCR system (Applied Biosystems, UK). […] Denaturation was performed at 95° C. for 15 s, annealing was performed at 60° C. for 1 min, and extension was performed at 72° C. for 20 s with fluorescence detection at 72° C. after each cycle. […]
(In general: Real-time PCR tracks product formation cycle by cycle.)

The subject of the next assay is aged C57BL/6J mice. In words: Sarcopenia model using aging mice. It counts as in vivo, mouse. As to the method: Male C57BL/6J mice over 21 months of age were divided into 2 groups of 5 and treated with drugs as follows: 1) 0.5% carboxyl methyl with 6.73% DMSO (Vehicle group) and 2) 50 mg/kg of malotilate (at a concentration of 50 mg/kg, 0.5% carboxyl methyl with 6.73% DMSO) (Malotilate group). Those were administered orally daily for 4 weeks. Afterwards, the function and condition of the muscles were analyzed.
Grip strength was measured with the BIO-GS3 grip strength test meter (Bioseb, FL, USA). Grip strength was measured by placing the mouse on a grid and gently pulling it back with all four paws until the mouse fell off the grid. The trials were conducted with a time interval of 30 seconds, and the largest value among the three trials was selected as the representative muscle strength.
Muscle fatigue was measured from two different models using Rotarod (Ugo Basile, Italy). One is a constant speed model that measures how long movement can be continued on a cylinder rotating at a constant speed, and the other model is an acceleration model that measures how fast the mouse can continue movement when the speed of the cylinder increases at regular intervals. Mice were trained to adapt from 5 rpm to 15 rpm one day before measurement in the above two models.
Before sacrifice, mice were anesthetized by intraperitoneally administering 22 mg/kg Ketamine (Yuhan, Republic of Korea) and 10 mg/kg xylazine (Bayer, Republic of Korea) by IP injection, and then samples were collected. Quadriceps, gastrocnemius, tibialis anterior and soleus muscles were sampled and their weights were measured. The muscles sampled for immunohistostaining were cultured overnight at 4° C. with 4% paraformaldehyde, fixed, embedded in paraffin solution, and stored at −80° C. Cutting and hematoxylin & eosin staining were carried out at the Animal Research Facility of the Gwangju Institute of Science and Technology, Republic of Korea. Hematoxylin & eosin staining was performed using the kit (Merck, Germany). The cross-sectional area of muscle fibers was measured using ImageJ 1.48 software (National Institutes of Health, USA).
Immunohistochemical staining was performed using myosin heavy chain types 2A and 2B (DSHB, IA, USA) and anti-laminin antibody (Abcam, Cambirdge, UK). Counterstain was stained with 1 μM DAPI solution. The cross-sectional area of muscle fibers was visualized using LEICA DM 2500 (Leica, Germany) and then measured using ImageJ 1.48 software (National Institutes of Health, USA).

Where [3] appears, read: aged mice, 50 mg/kg orally daily, 4 weeks.

For `CC(C)OC(=O)C(C(=O)OC(C)C)=C1SC=CS1` [malotilate, Malotilate], the Alox5 inhibition selectivity entry at Alox5 [1] is “selective inhibitor of Alox5”. Also, in the assay with Alox5 [2], the Alox5 expression entry is given as “did not affect”. In the assay on aged C57BL/6J mice (setting [3]), the grip strength result is “significantly increased”, the “mean latency to fall” value is “increased in malotilate-treated mice but did not reach statistical significance”, the quadriceps muscle mass entry was “significantly increased” and the soleus muscle mass result is “significantly increased”. In addition, the “CSA of fast twitch fibers (types IIA and IIB)” value with aged C57BL/6J mice (aged mice, immunohistology) is reported as “preserves”. Also, in the assay with aged C57BL/6J mice (aged mice, quadriceps), the “average muscle fiber cross-sectional area” value is given as “increased” and the “proportion of large myofibers (>5000 μm^2)” value was “much larger proportion”. Further, the skeletal muscle atrophy result in the assay with aged C57BL/6J mice (animal model of sarcopenia due to aging) was “inhibited”.
